For test [1], the target named is T1, Serine/threonine-protein kinase TAO1 (Homo sapiens) (UniProt Q7L7X3).
T1 sequence (whole entry): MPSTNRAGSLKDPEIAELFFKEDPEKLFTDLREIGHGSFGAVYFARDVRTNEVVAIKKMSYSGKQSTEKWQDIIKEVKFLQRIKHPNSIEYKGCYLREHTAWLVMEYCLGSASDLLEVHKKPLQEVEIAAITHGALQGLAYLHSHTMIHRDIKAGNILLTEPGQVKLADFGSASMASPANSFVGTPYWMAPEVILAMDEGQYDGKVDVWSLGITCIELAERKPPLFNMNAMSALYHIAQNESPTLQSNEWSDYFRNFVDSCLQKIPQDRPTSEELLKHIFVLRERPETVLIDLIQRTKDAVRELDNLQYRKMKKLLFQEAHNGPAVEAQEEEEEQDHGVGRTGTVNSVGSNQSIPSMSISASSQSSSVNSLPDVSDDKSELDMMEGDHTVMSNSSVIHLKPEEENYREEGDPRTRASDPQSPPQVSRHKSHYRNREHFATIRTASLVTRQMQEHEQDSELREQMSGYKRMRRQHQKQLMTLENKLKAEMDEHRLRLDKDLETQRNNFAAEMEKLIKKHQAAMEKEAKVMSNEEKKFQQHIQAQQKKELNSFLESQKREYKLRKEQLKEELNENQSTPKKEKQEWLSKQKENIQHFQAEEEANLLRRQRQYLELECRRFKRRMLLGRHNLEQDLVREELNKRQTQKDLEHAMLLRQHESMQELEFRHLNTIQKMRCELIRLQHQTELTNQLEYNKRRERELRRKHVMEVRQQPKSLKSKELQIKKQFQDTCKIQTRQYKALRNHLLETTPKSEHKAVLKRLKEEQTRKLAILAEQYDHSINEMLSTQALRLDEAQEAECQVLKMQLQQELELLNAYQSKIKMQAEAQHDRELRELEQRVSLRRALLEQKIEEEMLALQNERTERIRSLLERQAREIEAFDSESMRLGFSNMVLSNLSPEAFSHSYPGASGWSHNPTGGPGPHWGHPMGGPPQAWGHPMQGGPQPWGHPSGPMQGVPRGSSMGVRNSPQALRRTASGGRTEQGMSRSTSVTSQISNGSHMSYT
As to the kind of experiment: Inhibition of TAOK1 (unknown origin) at 1 uM by Ambit Kinomescan binding assay relative to control.

The target of test [2] is T2, Mitogen-activated protein kinase kinase kinase kinase 2 (Homo sapiens) (UniProt Q12851).
T2 sequence (whole entry): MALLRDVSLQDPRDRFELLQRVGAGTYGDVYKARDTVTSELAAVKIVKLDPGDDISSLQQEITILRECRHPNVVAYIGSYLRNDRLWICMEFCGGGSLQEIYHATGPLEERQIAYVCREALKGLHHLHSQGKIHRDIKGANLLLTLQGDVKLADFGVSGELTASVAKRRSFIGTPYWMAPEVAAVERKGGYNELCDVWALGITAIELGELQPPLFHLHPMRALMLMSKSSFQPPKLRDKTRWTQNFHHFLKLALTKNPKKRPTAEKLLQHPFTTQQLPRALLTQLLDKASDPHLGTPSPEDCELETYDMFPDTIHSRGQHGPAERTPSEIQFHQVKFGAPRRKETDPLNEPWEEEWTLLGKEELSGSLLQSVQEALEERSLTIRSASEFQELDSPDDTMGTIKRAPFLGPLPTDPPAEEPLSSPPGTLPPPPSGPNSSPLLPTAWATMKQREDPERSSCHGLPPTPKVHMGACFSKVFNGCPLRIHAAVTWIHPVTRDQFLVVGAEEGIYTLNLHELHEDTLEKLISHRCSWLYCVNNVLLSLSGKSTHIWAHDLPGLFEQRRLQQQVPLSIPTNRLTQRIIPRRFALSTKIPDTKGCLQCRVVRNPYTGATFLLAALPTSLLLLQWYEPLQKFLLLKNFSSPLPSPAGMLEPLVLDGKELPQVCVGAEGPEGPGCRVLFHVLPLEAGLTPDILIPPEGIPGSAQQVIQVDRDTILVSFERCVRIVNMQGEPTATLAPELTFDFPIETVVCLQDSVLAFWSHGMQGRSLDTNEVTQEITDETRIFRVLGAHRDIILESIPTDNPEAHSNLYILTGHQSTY
As to the kind of experiment: Inhibition of MAP4K2 Lys2 labeling site in human A-375 cells at 0.5 uM by KiNativ Profiling analysis relative to control. The format is cell-based.

For test [3], the target named is Serine/threonine-protein kinase 24 (Homo sapiens) (UniProt Q9Y6E0). Briefly: Inhibition of MST3 Lys2 labeling site harbouring IHRDIKAANVLLSEHGEVK in human Huh-7 cell lysate at 1 uM by KiNativ Profiling analysis relative to control. The test is classed as subcellular.
The target in test [4] is Phosphatidylinositol 4-phosphate 3-kinase C2 domain-containing subunit beta (Homo sapiens) (UniProt O00750). Briefly: Inhibition of PIK3C2B ATP labeling site in human Huh-7 cell lysate at 1 uM by KiNativ Profiling analysis relative to control. The test is classed as subcellular.

As usually defined, the inhibition is the share of the control response that was lost under treatment.

Chain of Serine/threonine-protein kinase 24 (Homo sapiens) (Q9Y6E0 whole entry, looked up, the tested form may be a part): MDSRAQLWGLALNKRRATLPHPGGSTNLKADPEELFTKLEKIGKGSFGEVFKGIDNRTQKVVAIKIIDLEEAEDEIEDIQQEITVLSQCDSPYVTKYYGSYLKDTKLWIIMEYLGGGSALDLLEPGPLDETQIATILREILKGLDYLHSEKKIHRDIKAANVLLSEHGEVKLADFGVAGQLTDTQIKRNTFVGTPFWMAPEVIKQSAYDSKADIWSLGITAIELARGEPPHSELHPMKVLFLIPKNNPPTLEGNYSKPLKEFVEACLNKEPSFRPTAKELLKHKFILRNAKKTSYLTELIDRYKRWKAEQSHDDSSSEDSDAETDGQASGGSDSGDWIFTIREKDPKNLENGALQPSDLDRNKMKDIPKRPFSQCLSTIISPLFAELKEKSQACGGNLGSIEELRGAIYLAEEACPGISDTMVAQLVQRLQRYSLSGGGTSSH
Chain of Phosphatidylinositol 4-phosphate 3-kinase C2 domain-containing subunit beta (Homo sapiens) (O00750 whole entry, the tested form may be a part): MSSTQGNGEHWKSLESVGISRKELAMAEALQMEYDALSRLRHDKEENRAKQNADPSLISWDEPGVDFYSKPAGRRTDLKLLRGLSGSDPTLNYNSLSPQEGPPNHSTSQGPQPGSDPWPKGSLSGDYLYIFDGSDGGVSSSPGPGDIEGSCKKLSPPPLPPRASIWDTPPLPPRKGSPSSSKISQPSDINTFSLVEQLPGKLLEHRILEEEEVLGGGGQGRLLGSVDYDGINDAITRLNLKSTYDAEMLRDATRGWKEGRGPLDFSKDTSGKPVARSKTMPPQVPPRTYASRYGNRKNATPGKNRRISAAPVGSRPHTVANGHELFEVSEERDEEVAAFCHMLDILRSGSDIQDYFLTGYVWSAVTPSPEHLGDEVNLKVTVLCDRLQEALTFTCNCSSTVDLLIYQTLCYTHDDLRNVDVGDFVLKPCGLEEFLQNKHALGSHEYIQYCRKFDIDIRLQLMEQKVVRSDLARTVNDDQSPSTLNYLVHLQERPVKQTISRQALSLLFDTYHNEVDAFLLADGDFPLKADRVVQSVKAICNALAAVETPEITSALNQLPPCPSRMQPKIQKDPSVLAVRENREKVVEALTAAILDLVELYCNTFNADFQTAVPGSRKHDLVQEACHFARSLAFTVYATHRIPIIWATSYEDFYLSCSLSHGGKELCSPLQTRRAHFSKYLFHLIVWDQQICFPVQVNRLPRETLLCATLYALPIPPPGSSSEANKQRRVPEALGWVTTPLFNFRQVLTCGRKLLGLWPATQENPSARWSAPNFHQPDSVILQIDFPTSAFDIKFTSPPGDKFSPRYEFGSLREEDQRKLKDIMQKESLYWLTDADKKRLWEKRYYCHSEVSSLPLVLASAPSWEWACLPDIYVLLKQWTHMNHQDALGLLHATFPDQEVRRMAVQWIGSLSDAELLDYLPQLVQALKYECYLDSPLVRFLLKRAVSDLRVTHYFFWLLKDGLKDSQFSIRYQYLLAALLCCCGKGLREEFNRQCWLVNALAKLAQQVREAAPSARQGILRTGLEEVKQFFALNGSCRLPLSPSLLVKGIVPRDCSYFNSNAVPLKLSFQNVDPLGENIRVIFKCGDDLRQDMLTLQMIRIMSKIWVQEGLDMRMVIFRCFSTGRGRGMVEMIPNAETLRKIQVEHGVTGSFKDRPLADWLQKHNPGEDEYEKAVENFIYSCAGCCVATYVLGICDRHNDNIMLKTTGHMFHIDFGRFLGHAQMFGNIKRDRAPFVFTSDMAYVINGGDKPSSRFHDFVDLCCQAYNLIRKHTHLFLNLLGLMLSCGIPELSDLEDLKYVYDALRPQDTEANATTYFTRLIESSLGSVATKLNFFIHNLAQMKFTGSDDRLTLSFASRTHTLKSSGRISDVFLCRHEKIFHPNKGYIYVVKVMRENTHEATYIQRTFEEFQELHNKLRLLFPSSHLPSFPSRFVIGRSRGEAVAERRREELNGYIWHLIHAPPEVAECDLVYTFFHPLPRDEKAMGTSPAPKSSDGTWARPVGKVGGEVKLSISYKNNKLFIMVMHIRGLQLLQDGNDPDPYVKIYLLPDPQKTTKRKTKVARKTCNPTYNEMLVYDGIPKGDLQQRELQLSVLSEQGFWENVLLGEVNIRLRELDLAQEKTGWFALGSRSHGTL

For the molecule `CCN1CCN(Cc2ccc(NC(=O)c3ccc(C)c(/C=C/c4cnc5[nH]ccc5c4OC)c3)cc2C(F)(F)F)CC1`, in test [1], the inhibition is 22%.

With `CCN1CCN(Cc2ccc(NC(=O)c3ccc(C)c(Oc4ccnc5[nH]ccc45)c3)cc2C(F)(F)F)CC1`, in test [2], the inhibition was found to be 91.1%. On to `CNc1cc(Oc2cc(C(=O)Nc3cc(N4CCN(C)CC4)cc(C(F)(F)F)c3)ccc2C)ncn1`, for which the inhibition in test [3] came to 15.9%; in test [4], 9%.

The record behind these values is ChEMBL document CHEMBL5696442, “Discovery of type II inhibitors of TGFβ-activated kinase 1 (TAK1) and mitogen-activated protein kinase kinase kinase kinase 2 (MAP4K2)” (J Med Chem, 2015).
